Data as given in ChEMBL document CHEMBL1201862, “PubChem BioAssay data set” (2004).
Values belong to the molecule of their own block, whether it stands above or below them. Active and inactive are the calls of the source.

Columns and labels:
[1] = target: Mitochondrial peptide methionine sulfoxide reductase (Bos taurus, UniProt P54149); assay: Absorbance-based biochemical high throughput dose response assay for activators of Methionine sulfoxide reductase A (MsrA).; type: functional
[2] = target: Hexokinase (Trypanosoma brucei, UniProt Q38C41); assay: Confirmation assay for inhibitors of Trypanosoma brucei hexokinase 1-Analogue-first series. [Related pubchem assays (depositor defined):AID1430, AID1632, AID2516, AID2560, AID2579, AID2600, AID449725, AID492951]; type: functional
[3] = Counterscreen for activators of the function of SWI/SNF related, matrix associated, actin dependent regulator of chromatin, subfamily a, member 2 (SMARCA2, BRM): Luminescence-based cell-based high throughput dose response assay to identify non-selective compounds using the VP16 reporter assay.; type: functional
[4] = Fluorescence-based cell-based high throughput dose response assay for inhibitors of the interaction of nucleotide-binding oligomerization domain containing 2 (NOD2) and the receptor-interacting serine-threonine kinase 2 (RIPK2).; type: functional; details: Homo sapiens
[5] = target: Glucose-6-phosphate 1-dehydrogenase (Homo sapiens, UniProt P11413); assay: human G6PD enzyme inhibitors, dose response, selectivity assay for P. falciparum G6PD inhibitor project, biochemical, fluorescence (AID 504792); type: functional
[6] = target: Beta Lactamase (Pseudomonas aeruginosa, UniProt Q932Y6); assay: beta-lactamase reporter inhibitor potency, dose response, artefact control for NOD2-RIPK2 interaction inhibitor project, BLA reporter cells, FRET fluorescence (AID 651552); type: functional, cell-based
[7] = target: T1, Rac GTPase-activating protein 1 (Homo sapiens, UniProt Q9H0H5); assay: MgcRacGAP GTPase-activating activity inhibitors, confirmation, biochemical, ADP Hunter fluorescence, primary and confirmatory (AID 624330); type: functional
T1 sequence (Q9H0H5 whole entry): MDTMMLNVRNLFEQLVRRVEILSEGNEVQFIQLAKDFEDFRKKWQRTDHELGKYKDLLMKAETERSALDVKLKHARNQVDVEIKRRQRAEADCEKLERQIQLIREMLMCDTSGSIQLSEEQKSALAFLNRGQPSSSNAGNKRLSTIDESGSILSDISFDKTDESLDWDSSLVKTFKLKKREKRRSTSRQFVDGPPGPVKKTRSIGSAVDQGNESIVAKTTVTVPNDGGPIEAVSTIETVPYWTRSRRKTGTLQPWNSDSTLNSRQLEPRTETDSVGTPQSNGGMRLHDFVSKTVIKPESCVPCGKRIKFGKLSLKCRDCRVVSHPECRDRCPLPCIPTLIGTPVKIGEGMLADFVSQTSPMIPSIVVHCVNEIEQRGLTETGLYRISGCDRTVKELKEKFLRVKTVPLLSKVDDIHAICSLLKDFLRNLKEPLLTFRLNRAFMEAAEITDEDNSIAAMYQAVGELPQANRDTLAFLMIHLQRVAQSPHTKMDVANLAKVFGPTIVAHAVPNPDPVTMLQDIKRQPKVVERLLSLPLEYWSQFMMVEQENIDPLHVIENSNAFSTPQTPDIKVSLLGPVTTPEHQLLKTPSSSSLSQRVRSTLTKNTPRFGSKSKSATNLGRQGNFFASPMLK

[8] = target: SWI/SNF-related matrix-associated actin-dependent regulator of chromatin subfamily A member 2 (Homo sapiens, UniProt P51531); assay: Luminescence-based cell-based high throughput dose response assay to identify activators of the function of SWI/SNF related, matrix associated, actin dependent regulator of chromatin, subfamily a, member 2 (SMARCA2, BRM).; type: functional
[9] = cells; type: functional, cell-based
[10] = cells; type: functional, cell-based; remark: listed apart in the source
[11] = target: T2, Trace amine-associated receptor 1 (Homo sapiens, UniProt Q96RJ0); assay: Counterscreen for agonists of the human trace amine associated receptor 1 (hTAAR1): Fluorescence-based cell-based high throughput dose response assay to identify hTAAR1 agonist that also desensitize TAAR1 receptor response.; type: functional
T2 sequence (Q96RJ0 whole entry): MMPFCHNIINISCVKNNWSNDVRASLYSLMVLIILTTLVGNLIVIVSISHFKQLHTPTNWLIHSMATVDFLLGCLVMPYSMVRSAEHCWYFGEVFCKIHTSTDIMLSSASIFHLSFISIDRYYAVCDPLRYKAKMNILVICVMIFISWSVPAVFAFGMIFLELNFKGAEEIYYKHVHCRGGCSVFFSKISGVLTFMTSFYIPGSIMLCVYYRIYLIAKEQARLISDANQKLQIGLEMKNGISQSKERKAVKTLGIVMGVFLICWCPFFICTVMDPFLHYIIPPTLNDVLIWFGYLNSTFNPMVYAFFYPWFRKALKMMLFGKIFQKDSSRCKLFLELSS

[12] = target: T2, Trace amine-associated receptor 1; assay: Fluorescence-based cell-based high throughput dose response assay to identify agonists of the human trace amine associated receptor 1 (TAAR1).; type: functional
[13] = target: Melanocortin receptor 4 (Homo sapiens, UniProt P32245); type: functional, cell-based;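 also: Cell-based assay with luminescence read-out, confirmatory dose-response testing for agonist activity of biased ligands at MC4R; human U2OS cells with tagged receptor and beta-arrestin; potency of agonists that increase receptor coupling to beta-arrestin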
[14] = HEK293T cytotoxicity, dose response, cytotoxicity control for miR-122 modulator project, cell-based, inhibitor set, cherry-pick, set 2 (AID 720697); type: functional
[15] = miR-122 activators in hepatoma reporter cells, dose response, cell-based, Huh7 psiCHECK-miR122, Renilla luciferase, cherry-picked (AID 651956); type: functional;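 also: huh7 hepatoma cells stably carrying a psiCHECK-2 miR-122 sensor plasmid; renilla luciferase signal reporting endogenous miR-122 activity after 48 h compound exposure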
[16] = HEK293T cytotoxicity, dose response, cytotoxicity control for miR-122 modulator project, cell-based, activator set, cherry-pick (AID 720690); type: functional;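 also: HEK293T human cells scored for general mammalian cytotoxicity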
[17] = inhibitors of LMP1-driven NF-kB reporter, dose response, cell-based, EBV LMP1, luciferase, dry powder, set 2 (AID 624361); type: functional
[18] = HEK293 cell viability, dose response, counter-screen for EBV LMP1 inhibitor project, dry powder, set 2 (AID 624374); type: functional
[19] = inhibitors of TNFa-stimulated NF-kB luciferase reporter, dose response, selectivity assay for EBV LMP1 NF-kB inhibitor project, HEK293 LMP1 reporter cells, dry powder, set 2 (AID 624369); type: functional
[20] = LMP1-driven NF-kB reporter inhibition, dose response, cell-based, luciferase reporter, luminescence, dry powder, set 2 (AID 624376); type: functional
[21] = tested on: Vero; assay: Vero cell toxicity, dose response, cytotoxicity control, plate reader, cherry-pick samples (AID 687020); type: functional, cell-based; details: Chlorocebus sabaeus
[22] = target: T3, Low molecular weight phosphotyrosine protein phosphatase (Homo sapiens, UniProt P24666); type: functional; details: read-out: IC50_Mean
T3 sequence (P24666 whole entry): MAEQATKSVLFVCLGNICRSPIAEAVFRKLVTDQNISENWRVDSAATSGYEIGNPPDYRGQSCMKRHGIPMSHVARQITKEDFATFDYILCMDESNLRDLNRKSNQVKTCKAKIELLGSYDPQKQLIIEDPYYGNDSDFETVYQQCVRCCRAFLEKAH

[23] = target: T3, Low molecular weight phosphotyrosine protein phosphatase; type: functional; details: read-out: IC50_Mean; remark: listed apart in the source
[24] = target: T4, Carboxy-terminal domain RNA polymerase II polypeptide A small phosphatase 1 (Homo sapiens, UniProt Q9GZU7); assay: inhibitors of CTDSP1, concentration-response testing, biochemical assay, absorbance-based, actives from ultra-high-throughput screening (AID 540297); type: functional
T4 sequence (Q9GZU7 whole entry): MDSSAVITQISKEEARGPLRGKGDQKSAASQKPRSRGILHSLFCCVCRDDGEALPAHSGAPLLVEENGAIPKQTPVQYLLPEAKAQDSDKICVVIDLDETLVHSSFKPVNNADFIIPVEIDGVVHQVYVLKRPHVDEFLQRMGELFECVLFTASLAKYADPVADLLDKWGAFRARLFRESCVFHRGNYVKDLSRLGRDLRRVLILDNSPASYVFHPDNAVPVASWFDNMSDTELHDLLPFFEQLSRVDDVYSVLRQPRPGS

Sequence of Melanocortin receptor 4 (P32245 whole entry): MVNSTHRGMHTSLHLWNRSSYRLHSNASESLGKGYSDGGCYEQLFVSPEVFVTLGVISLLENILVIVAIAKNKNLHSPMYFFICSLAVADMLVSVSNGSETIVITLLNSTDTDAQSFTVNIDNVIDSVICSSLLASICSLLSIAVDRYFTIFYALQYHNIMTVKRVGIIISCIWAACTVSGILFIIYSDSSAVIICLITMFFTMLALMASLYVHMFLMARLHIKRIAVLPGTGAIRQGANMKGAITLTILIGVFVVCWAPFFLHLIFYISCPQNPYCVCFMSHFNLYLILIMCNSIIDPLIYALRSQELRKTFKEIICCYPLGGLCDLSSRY
Sequence of Beta Lactamase (Q932Y6 whole entry): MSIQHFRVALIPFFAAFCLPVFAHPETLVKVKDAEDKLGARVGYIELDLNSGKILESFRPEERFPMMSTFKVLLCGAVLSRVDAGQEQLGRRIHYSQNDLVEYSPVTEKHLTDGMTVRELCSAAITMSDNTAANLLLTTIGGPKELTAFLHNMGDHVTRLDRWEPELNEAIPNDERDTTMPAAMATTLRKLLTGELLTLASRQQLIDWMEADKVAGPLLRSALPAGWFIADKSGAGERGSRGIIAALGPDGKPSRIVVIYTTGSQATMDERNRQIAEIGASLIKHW
Sequence of Mitochondrial peptide methionine sulfoxide reductase (P54149 whole entry): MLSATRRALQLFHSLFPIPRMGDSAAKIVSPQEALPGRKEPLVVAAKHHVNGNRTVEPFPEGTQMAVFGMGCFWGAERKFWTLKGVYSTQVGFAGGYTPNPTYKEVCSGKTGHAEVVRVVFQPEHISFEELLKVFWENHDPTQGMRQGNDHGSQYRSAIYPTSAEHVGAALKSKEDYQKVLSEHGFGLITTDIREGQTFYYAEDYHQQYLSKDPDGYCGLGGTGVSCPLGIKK
Sequence of Hexokinase (Q38C41 whole entry): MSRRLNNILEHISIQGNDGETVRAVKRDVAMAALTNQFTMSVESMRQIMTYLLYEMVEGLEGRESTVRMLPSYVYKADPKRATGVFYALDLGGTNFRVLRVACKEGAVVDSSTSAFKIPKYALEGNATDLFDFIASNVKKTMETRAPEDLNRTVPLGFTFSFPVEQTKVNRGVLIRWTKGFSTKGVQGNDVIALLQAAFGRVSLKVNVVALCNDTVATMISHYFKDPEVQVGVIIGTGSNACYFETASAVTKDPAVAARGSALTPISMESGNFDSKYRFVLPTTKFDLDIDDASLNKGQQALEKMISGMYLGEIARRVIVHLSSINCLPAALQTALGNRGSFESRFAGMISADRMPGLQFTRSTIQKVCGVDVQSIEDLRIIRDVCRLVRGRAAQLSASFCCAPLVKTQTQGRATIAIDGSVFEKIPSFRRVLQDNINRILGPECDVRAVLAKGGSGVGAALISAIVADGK
Sequence of Glucose-6-phosphate 1-dehydrogenase (P11413 whole entry): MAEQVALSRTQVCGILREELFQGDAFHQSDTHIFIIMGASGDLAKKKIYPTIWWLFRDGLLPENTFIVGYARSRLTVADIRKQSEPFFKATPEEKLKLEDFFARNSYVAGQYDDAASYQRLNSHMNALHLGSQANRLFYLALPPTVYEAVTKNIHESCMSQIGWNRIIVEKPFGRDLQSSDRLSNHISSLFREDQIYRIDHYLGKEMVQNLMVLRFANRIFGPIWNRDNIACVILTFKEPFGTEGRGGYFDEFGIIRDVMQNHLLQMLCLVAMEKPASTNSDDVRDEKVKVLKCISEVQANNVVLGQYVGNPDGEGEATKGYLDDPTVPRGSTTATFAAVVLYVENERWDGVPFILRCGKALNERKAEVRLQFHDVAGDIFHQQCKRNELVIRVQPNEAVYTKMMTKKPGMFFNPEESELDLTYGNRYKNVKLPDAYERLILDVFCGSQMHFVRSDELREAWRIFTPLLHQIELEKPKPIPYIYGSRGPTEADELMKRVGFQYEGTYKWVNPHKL
Sequence of SWI/SNF-related matrix-associated actin-dependent regulator of chromatin subfamily A member 2 (P51531 whole entry): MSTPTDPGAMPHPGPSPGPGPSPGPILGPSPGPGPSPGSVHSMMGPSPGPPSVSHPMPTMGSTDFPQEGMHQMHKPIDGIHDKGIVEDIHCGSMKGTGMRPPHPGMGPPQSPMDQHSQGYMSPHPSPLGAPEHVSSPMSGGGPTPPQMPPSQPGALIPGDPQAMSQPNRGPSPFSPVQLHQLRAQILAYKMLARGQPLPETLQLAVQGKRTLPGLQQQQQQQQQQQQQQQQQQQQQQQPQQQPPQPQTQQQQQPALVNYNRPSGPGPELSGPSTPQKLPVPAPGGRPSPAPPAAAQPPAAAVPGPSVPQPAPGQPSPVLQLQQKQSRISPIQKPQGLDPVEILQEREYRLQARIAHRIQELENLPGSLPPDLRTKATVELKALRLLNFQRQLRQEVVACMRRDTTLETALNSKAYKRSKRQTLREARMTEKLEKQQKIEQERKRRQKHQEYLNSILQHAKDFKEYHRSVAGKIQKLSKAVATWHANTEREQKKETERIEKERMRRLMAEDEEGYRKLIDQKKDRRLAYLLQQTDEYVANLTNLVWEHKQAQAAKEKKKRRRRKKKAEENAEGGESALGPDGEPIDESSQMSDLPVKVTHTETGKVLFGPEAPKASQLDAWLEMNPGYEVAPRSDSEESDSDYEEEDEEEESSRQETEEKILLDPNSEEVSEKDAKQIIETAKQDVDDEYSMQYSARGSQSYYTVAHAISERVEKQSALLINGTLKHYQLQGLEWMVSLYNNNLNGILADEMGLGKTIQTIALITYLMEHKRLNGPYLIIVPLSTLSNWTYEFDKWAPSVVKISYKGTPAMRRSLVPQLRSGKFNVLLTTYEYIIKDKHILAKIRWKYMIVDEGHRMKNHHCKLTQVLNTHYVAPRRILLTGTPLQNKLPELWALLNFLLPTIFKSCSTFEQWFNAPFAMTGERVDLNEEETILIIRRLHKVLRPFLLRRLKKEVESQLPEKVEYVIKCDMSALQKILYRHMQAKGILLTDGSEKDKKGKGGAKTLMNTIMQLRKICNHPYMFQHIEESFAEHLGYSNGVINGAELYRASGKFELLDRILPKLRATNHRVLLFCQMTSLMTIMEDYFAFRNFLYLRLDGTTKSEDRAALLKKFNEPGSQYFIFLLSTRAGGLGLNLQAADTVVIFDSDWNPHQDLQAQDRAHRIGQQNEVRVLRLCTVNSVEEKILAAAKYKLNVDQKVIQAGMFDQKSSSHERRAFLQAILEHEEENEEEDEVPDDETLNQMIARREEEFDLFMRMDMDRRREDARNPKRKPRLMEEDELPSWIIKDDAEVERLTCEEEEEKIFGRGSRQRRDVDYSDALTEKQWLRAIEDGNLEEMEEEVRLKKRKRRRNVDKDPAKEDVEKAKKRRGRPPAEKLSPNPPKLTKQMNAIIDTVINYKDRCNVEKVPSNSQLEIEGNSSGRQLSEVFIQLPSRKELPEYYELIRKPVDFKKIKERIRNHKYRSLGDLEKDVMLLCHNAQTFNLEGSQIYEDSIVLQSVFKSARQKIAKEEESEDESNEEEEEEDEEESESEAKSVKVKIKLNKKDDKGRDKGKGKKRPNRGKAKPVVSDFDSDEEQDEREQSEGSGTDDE

Structure (SMILES): CC(=O)Nc1ccc2sn(-c3ccccc3)c(=O)c2c1
EC50 [1]: > 104 µM (inactive)
IC50 [2]: 6.31 µM (active)
EC50 [3]: > 91.2 µM (inactive)
IC50 [4]: 6.19 µM (active)
IC50 [5]: 12.1 µM (active)
IC50 [6]: 23.4 µM (inactive)
IC50 [7]: 53.3 µM (active)
EC50 [8]: > 91.2 µM (inactive)

Structure (SMILES): O=C(O)C1C2CCC(C2)C1C(=O)NCCc1cccc(Cl)c1 (centres undefined)
EC50 [9]: > 29.9 µM (inactive)
IC50 [10]: > 29.9 µM (inactive)
IC50 [11]: > 29.9 µM (inactive)
EC50 [12]: 2.58 µM (active)

EC50 [13]: 3.99 µM (active)
Structure (SMILES): CC(=O)Nc1cc(-c2ccc(N(C)C)cc2)cn2c(-c3ccc(F)c(Cl)c3)cnc12

Structure (SMILES): C[C@H](CO)N1C[C@H](C)[C@H](CN(C)C(=O)c2ccc3c(c2)OCO3)Oc2cc(C#Cc3ccccc3F)ccc2S1(=O)=O
AC50 [14]: 23.7 µM (active)
AC50 [15]: 36.6 µM (active)
AC50 [16]: 20.8 µM (active)

Structure (SMILES): COc1cccc(C(=O)Nc2ccc3c(c2)C(=O)N(C)C[C@H](OC)[C@@H](C)CN(CCc2ccccc2)[C@@H](C)CO3)c1
AbsAC35 [17]: 44.38 µM
AbsAC35 [18]: 50.41 µM
AbsAC35 [19]: 55.16 µM
AbsAC35 [20]: 39.75 µM

Structure (SMILES): COc1ccc(NC(=O)N[C@H]2CC[C@@H](CCn3cc(C4(O)CCCC4)nn3)O[C@@H]2CO)cc1
AC50 [21]: 36.7 µM (active)

IC50 [22]: 4.51 µM (active)
IC50 [23]: 11.4 µM (active)
IC50 [24]: 2.16 µM (active)
Structure (SMILES): O=C(N/N=C\c1ccc(OC(=O)c2cccs2)cc1)c1ccc(Cl)cc1
